Columns and labels:
[1] = Liver Microsome Stability Assay (monkey); conditions: monkey liver microsomes, with NADPH, 1.0 uM compound
Description: (§1) Stability of a compound was assessed in the presence of liver microsomes from various sources—mouse, rat, monkey and human liver microsomes. 1.0 uM compound, 0.4% DMSO in 0.1 M Potassium Phosphate with 1.0 mg/mL liver microsomes, were incubated at 37° C. with or without 1 mM NADPH. The samples were quenched at 0, and 30 minutes.

[2] = system: multiple myeloma cell line NCI-H929; experiment: H929 Cell Viability Assay; type: cell-based, human; conditions: Homo sapiens, NCI-H929, 48 h, NCI-H929 cells, Celltiter-Glo
Outline: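 NCI-H929 cells in RPMI 1640 with 10% FBS were treated with compound dilutions for 48 h at 37° C, 5% CO2. Viability was read by CellTiter-Glo luminescence. Undefined stereocentres denote stereoisomer mixtures.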

[3] = Liver Microsome Stability Assay (human); conditions: human liver microsomes, with NADPH, 1.0 uM compound
Description: as §1

[4] = system: TNFα-FL/Gaussia Luciferase; experiment: Dox Induced TNFα-FL-Gluc Assay; type: cell-based; conditions: for IC50: 24 hr Dox induction, 293FRT/TO cells, read-out: 24 hr Dox Inducible TNFaFLGluc 293FRT/TO: Mean IC50; for 24 hr Dox Inducible TNFaFLGluc 293FRT/TO: TNF/PD1: ratio of TNFaFLGluc IC50 to PD1ssGluc IC50
Outline: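 Flp-In 293 T-REx cells stably carrying doxycycline-inducible full-length TNFα (aa 1-233) fused to Gaussia luciferase. Plated the day before, then treated with compound dilutions in doxycycline-containing medium at 37° C, 5% CO2.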

[5] = system: HER3-ss+4aa/Gaussia Luciferase; experiment: Dox-Induced Her3-ss-Gluc Assay; type: cell-based; conditions: 24 hr Dox induction; 293FRT/TO cells; read-out: 24 hr Dox Inducible Her3(ss + 4)Gluc 293FRT/TO: Mean IC50
Outline: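 Stable Flp-In 293 T-REx cells carried a doxycycline-inducible HER3 signal sequence (+4 aa) fused to Gaussia luciferase. Cells were plated the day before the assay. Compound dilutions in DMSO/media containing doxycycline were then added, and plates were incubated at 37 °C, 5% CO2.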

[6] = system: IL-2-FL/Gaussia Luciferase; experiment: Dox Induced IL2-FL-Gluc Assay; type: cell-based; conditions: for IC50: 24 hr Dox induction, 293FRT/TO cells, read-out: 24 hr Dox Inducible IL2FLGluc 293FRT/TO: Mean IC50; for 24 hr Dox Inducible IL2FLGluc 293FRT/TO: IL2/PD1: ratio of IL2FLGluc IC50 to PD1ssGluc IC50
Outline: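 Stable Flp-In 293 T-REx cells carrying doxycycline-inducible full-length IL-2 (aa 1-153) fused to Gaussia luciferase, plated the day before assay. Compound dilutions added in medium containing doxycycline, incubated at 37 °C, 5% CO2. Undefined stereocentres mean data refer to stereoisomer mixtures.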

[7] = Liver Microsome Stability Assay (mouse); conditions: mouse liver microsomes, with NADPH, 1.0 uM compound
Description: as §1

[8] = system: multiple myeloma cell line U266B1; experiment: U266 Cell Viability Assay; type: cell-based, human; conditions: Homo sapiens, U-266, 48 h, U266B1 cells, Celltiter-Glo
Outline: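 U266B1 multiple myeloma cells in RPMI 1640/10% FBS were treated with compound dilutions for 48 h at 37 °C, 5% CO2. Viability was measured by CellTiter-Glo luminescence; compounds drawn without stereochemistry were tested as stereoisomer mixtures.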

[9] = Liver Microsome Stability Assay (rat); conditions: rat liver microsomes, with NADPH, 1.0 uM compound
Description: as §1

[10] = system: PD1-ss+10aa/Gaussia Luciferase; experiment: Dox-Induced PD1-ss-Gluc Assay; type: cell-based; conditions: 24 hr Dox induction; 293FRT/TO cells; read-out: 24 hr Dox Inducible PD1ssGluc 293FRT/TO: Mean IC50
Outline: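 Compounds were added in DMSO/media with doxycycline and incubated at 37 °C, 5% CO2, on 293 T-REx cells plated one day earlier. These cells stably express, under tetracycline-regulated control, a Gaussia luciferase fused to the PD1 signal peptide plus 10 residues. Structures drawn without stereochemistry were tested as stereoisomer mixtures.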

SMILES	Liver Microsome Stability (Multiple Species): Monkey - % Remaining after 30 min w/NADPH [1]	EC50 [2]	Liver Microsome Stability (Multiple Species): Human - % Remaining after 30 min w/NADPH [3]	IC50 [4]	IC50 [5]	IC50 [6]	Liver Microsome Stability (Multiple Species): Mouse - % Remaining after 30 min w/NADPH [7]	EC50 [8]	Liver Microsome Stability (Multiple Species): Rat - % Remaining after 30 min w/NADPH [9]	IC50 [10]	24 hr Dox Inducible TNFaFLGluc 293FRT/TO: TNF/PD1 [4]	24 hr Dox Inducible IL2FLGluc 293FRT/TO: IL2/PD1 [6]
Cc1coc(/C=C/c2csc(NC(=O)c3cccn3Cc3ccncc3)n2)n1 [Compound B41, (E)-N-(4-(2-(4-methyloxazol-2-yl)vinyl)thiazol-2-yl)-1-(pyridin-4-ylmethyl)-1H-pyrrole-2-carboxamide]	0.44%	> 25 µM	0.18%	> 25 µM	3.63 µM	> 16.6 µM	0.36%	> 25 µM	0.15%	0.398 µM	>62.8	>42
O=C(Nc1nc(/C=C/c2c[nH]cn2)cs1)c1cccn1Cc1ccncc1 [Compound B42, (E)-N-(4-(2-(1H-imidazol-4-yl)vinyl)thiazol-2-yl)-1-(pyridin-4-ylmethyl)-1H-pyrrole-2-carboxamide]	11.3%	> 25 µM	6.13%	> 25 µM	> 25 µM	> 25 µM	26.5%	> 25 µM	8.69%	6.68 µM	>3.74	>3.7
O=C(Nc1nc(/C=C/c2cnccn2)cs1)c1cccn1Cc1ccncc1 [Compound B43, (E)-N-(4-(2-(pyrazin-2-yl)vinyl)thiazol-2-yl)-1-(pyridin-4-ylmethyl)-1H-pyrrole-2-carboxamide]	0.92%	> 25 µM	1.83%	> 25 µM	> 25 µM	> 25 µM	1.19%	> 25 µM	1.88%	0.264 µM	>94.5	>95
O=C(Nc1nc(/C=C/c2ccncn2)cs1)c1cccn1Cc1ccncc1 [Compound B44, (E)-1-(pyridin-4-ylmethyl)-N-(4-(2-(pyrimidin-4-yl)vinyl)thiazol-2-yl)-1H-pyrrole-2-carboxamide]	0.36%	> 25 µM	0.24%	> 25 µM	> 25 µM	> 25 µM	4.87%	> 25 µM	1.3%	3.36 µM	>7.44	>7.4

Second part, led by results:

Liver Microsome Stability (Multiple Species): Monkey - % Remaining after 30 min w/NADPH [1]	EC50 [2]	Liver Microsome Stability (Multiple Species): Human - % Remaining after 30 min w/NADPH [3]	IC50 [4]	IC50 [5]	IC50 [6]	Liver Microsome Stability (Multiple Species): Mouse - % Remaining after 30 min w/NADPH [7]	EC50 [8]	Liver Microsome Stability (Multiple Species): Rat - % Remaining after 30 min w/NADPH [9]	IC50 [10]	SMILES	24 hr Dox Inducible TNFaFLGluc 293FRT/TO: TNF/PD1 [4]	24 hr Dox Inducible IL2FLGluc 293FRT/TO: IL2/PD1 [6]
3.93%	7.03 µM	0.7%	3.75 µM	0.773 µM	2.51 µM	9.8%	7.33 µM	2.95%	0.173 µM	CC(C)(C)c1nc(/C=C/c2csc(NC(=O)c3cccn3Cc3ccncc3)n2)co1 [Compound B36, (E)-N-(4-(2-(2-(tert-butyl)oxazol-4-yl)vinyl)thiazol-2-yl)-1-(pyridin-4-ylmethyl)-1H-pyrrole-2-carboxamide]	21.7	14
0.13%	> 25 µM	0.13%	> 25 µM	> 25 µM	> 25 µM	2.42%	> 25 µM	6.38%	0.0683 µM	CC(C)n1cnc(/C=C/c2csc(NC(=O)c3cccn3Cc3ccncc3)n2)c1 [Compound B37, (E)-N-(4-(2-(1-isopropyl-1H-imidazol-4-yl)vinyl)thiazol-2-yl)-1-(pyridin-4-ylmethyl)-1H-pyrrole-2-carboxamide]	>366	>370
0.69%	7.56 µM	0.54%	7.05 µM	1.38 µM	5.59 µM	6.78%	8.93 µM	1.03%	0.192 µM	CC(C)c1nc(/C=C/c2csc(NC(=O)c3cccn3Cc3ccncc3)n2)co1 [Compound B38, (E)-N-(4-(2-(2-isopropyloxazol-4-yl)vinyl)thiazol-2-yl)-1-(pyridin-4-ylmethyl)-1H-pyrrole-2-carboxamide]	36.6	29
0.47%	10.2 µM	0.27%	6.46 µM	0.945 µM	1.96 µM	16.5%	13.1 µM	5.38%	0.268 µM	O=C(Nc1nc(/C=C/c2coc(C3CCCCC3)n2)cs1)c1cccn1Cc1ccncc1 [Compound B39, (E)-N-(4-(2-(2-cyclohexyloxazol-4-yl)vinyl)thiazol-2-yl)-1-(pyridin-4-ylmethyl)-1H-pyrrole-2-carboxamide]	24.1	7.3
2.25%	> 25 µM	0.48%	> 25 µM	1.68 µM	4.57 µM	5.73%	> 25 µM	0.73%	0.221 µM	O=C(Nc1nc(/C=C/c2coc(C3CC3)n2)cs1)c1cccn1Cc1ccncc1 [Compound B40, (E)-N-(4-(2-(2-cyclopropyloxazol-4-yl)vinyl)thiazol-2-yl)-1-(pyridin-4-ylmethyl)-1H-pyrrole-2-carboxamide]	>113	21
0.19%	19.9 µM	0.1%	> 25 µM	> 25 µM	> 22.6 µM	23.2%	> 24.2 µM	16.3%	0.0421 µM	CC(C)n1cnc(/C=C/c2csc(NC(=O)c3cccn3Cc3ccnc(F)c3)n2)c1 [Compound B45, (E)-1-((2-fluoropyridin-4-yl)methyl)-N-(4-(2-(1-isopropyl-1H-imidazol-4-yl)vinyl)thiazol-2-yl)-1H-pyrrole-2-carboxamide]	>593	>540

From patent publication US20230286973A1, “PROTEIN SECRETION INHIBITORS” (KEZAR LIFE SCIENCES, priority 2020, published 2023)
